The text below walks through data of US9855205B2, “Use of zinc coceth sulfate as an antibacterial agent against propionibacterium acnes” (PIERRE FABRE DERMO-COSMETIQUE, priority 2012, dated 2018).

Data set [1] deals with Propionibacterium acnes ATCC6919. The experiment in a line: Evaluation of the bactericidal activity against P. acnes (log reduction over contact time). The format is cell-based. The following applies: Zetesol Zn at 20% (5% active zinc coceth sulfate). How it is done: The reduction over time of the log 10 of the number of germs in relation to initial number of germs (log R parameter) is evaluated.
The strain tested is Propionibacterium acnes ATCC6919.
Zetesol Zn® was tested at the concentration of 20% (i.e. 5% of active ingredient zinc coceth sulfate).
Method • placing into contact of the product to be tested with suspensions of P. acnes titrated at about 10^6 CFU/ml for 1, 5, 10 and 15 minutes. • Viable count after each duration of contact by inclusion of 1 ml of the sample in a culture agar (Columbia) • Incubation 72 hours at 36° C. in anaerobic conditions • Viable count of residual bacteria via direct counting.
Calculation of the fall in log 10:
The calculation of the fall in log 10 of the number of CFU/ml is carried out according to the formula hereinbelow: Logarithmic reduction=LOG 10(number of CFU present at TO/number of CFU remaining at Tx)
The results indicated in table 1 are the average of two independent tests (except for the duration of 10 min where only 1 test was carried out). Also see FIG. 1. […]

The nature of data set [2]: Irritant and sensitising potential.
The nature of data set [3]: pH of zinc coceth sulfate. In kind it is physicochemical.
For data set [4], the system named is chorio-allantoic membrane of an embryonated chicken egg. Kind of data set: Het Cam test (tolerance on the mucosa). The following applies: 1% solution, irritant effects within five minutes, tenth day of incubation. The protocol:
Zinc coceth was tested in a 1% solution.

As for Zinc coceth sulfate [Zetesol ® Zn], the “Log Reduction in 1 minute” value in data set [1] (contact 1 min, average of two tests) amounted to 0.63 log. For the same substance, the “Log Reduction in 5 minutes” value in data set [1] (contact 5 min, average of two tests) amounted to 2.06 log. Besides, the “Log Reduction in 10 minutes” value in data set [1] (contact 10 min, only 1 test) came to 3.65 log. Moreover, the “Log Reduction in 15 minutes” value in data set [1] (contact 15 min, average of two tests) is reported as above 5.04 log. Moreover, the “irritant and sensitising potential” value in data set [2] was “devoid of any irritant and sensitising potential”. Also, in data set [3], the pH is listed as 4.5. The “tolerance on the mucosa” value in data set [4] is reported as “good tolerance on the mucosa”.
